Experiments:
DHODH = DHODH (Homo sapiens (Human), UniProt Q02127); test: DHODH activity assay (coupled enzyme assay, DCIP reduction, absorbance at 610 nm); assay type: biochemical; conditions: for inhibition at 10 µM: read-out: inh @ 10 uM hDHODH (%)
Experimental: The DHODH activity assay is a coupled enzyme assay in which oxidation of DHO and subsequent reduction of ubiquinone are stoichiometrically equivalent to the reduction of DCIP ([…]). The reduction of DCIP is accompanied by a loss of absorbance at 610 nm.
Buffer Preparation: 50 mM tris HCl, 150 mM KCl, and pH 8.0, 0.8% triton.
5 μL of Dimethyl sulfoxide or a compound of formula I in DMSO solution was added to the wells of a 96 well plate. Compounds of formula I were measured at 10 μM.
Protein along with buffer was added, so that the total volume including the DMSO was 87 μL. Compound and protein were incubated for half an hour at room temperature after mixing. 5 μL of 20 mM solution of L-Dihydroorotic acid, 5 μL of 2 mM solution of Decylubiquinone and 3 μL of 2 mM solution of 2,6-Dichloroindophenol sodium salt hydrate were added to the above solution (total assay volume 100 μL). The mixture was stirred for 2 min and absorbance was recorded at every 10 min at 610 nanometers.
Percent Inhibition is Calculated as Follows
Positive control contains DMSO, buffer, enzyme and substrates
No Enzyme reaction contains DMSO, buffer and substrates
IC50 determination: • A 2 mM DMSO stock of the compound of formula I to be examined was prepared. ⅓rd dilutions were made as follows:
5 μL of each stock of compound of formula I (solution indicated in column 4 of table) was used for each 100 μL assay. Therefore, 5 μL of the 2 mM stock provided 100 μL of 100 μM solution of compound of formula I, when made up with buffer, protein and substrate. See also: Ulrich et al. (2001) Eur. J. Biochem. 268, 1861-1868.

Jurkat cells = test: Measurement of cell proliferation (Jurkat cell), XTT assay; assay type: cell-based; conditions: for EC50: XTT cell viability; for inhibition at 1 µM: compound at 1 uM, read-out: % inh Jurkat_cells @ 1 uM (%)
Experimental: See also Roehm, N et al [1991] An improved colorimetric assay for cell proliferation and viability utilizing the tetrazolium salt XTT. J. Immunol. Methods 142:257-265.
Culture Jurkat cells in T-25 flasks at a density of 0.2×10^6/ml 2-3 days before the day of experiment set up.
Centrifuge Jurkat T-cell suspension at 1200 rpm for 10 minutes and resuspend cells again in fresh RPMI medium with 10% FBS.
Count the cells and dilute suspension to a density of 2×10^6 cells/ml. Seed 50 μL of this suspension in each well of a 96 well plate (100,000 cells per well). Keep the edges of the plate empty to avoid evaporation.
Serially dilute DMSO stocks of compounds to get different concentrations for an EC50 curve. 50 μL of compound diluted in media (2× concentration required in well) is added to each well. DMSO concentration should be kept constant at 0.25-0.5% for all wells.
Typically, for all compounds with IC50<1 μM, compound concentration can start at 10 μM followed by half log dilutions for a total of 8-10 concentrations. Each concentration has to be tested in triplicate.
Include controls such as cells without compound (with same DMSO concentration as compound wells), and media control
Incubate the 96 well plate in a CO2 incubator at 37° C. for 72 hrs before determining cell viability using XTT assay
XTT assay: to each well, add 50 μL of 1 mg/ml XTT solution with 20 μl of PMS/mL. Read the plates after 2 hours at 465 nm using the spectrophotometer. XTT reading for media without cells is used as background reading.
Calculate % cell viability assuming that the cells without compound are 100% viable.
Plot % cell viability as a function of concentration and determine EC50 by using software such as Graph Pad Prism to fit the curve.

Chain of DHODH (Q02127 whole entry): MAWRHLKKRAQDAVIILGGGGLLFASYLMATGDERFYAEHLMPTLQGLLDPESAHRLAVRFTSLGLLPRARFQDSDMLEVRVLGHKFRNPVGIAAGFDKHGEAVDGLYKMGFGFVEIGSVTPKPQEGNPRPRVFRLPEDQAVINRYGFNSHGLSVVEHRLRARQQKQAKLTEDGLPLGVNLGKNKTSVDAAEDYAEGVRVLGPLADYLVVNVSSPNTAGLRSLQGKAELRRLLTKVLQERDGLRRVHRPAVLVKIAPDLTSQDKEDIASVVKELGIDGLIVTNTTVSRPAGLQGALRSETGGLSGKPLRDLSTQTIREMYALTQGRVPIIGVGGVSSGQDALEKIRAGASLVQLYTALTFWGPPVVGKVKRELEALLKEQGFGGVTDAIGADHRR

Row | SMILES | IC50 (DHODH) [nM] | inh @ 10 uM hDHODH (%) (DHODH; compound at 10 uM) | EC50 (Jurkat cells; 72 hrs) [nM] | inhibition at 10 µM (DHODH; compound at 10 uM) [%] | EC50 (Jurkat cells; Homo sapiens, Jurkat, 72 h) [nM] | inhibition at 1 µM (Jurkat cells; Homo sapiens, Jurkat) [%]
1 | COc1cccc(-c2ccc(-c3nc4c(C(=O)O)cccc4[nH]3)c(F)c2)c1 [I3] | 616 | 92.6 | 753 | – | – | –
2 | Cc1cc(C(=O)O)c2c(c1)nc(-c1c(F)c(F)c(-c3ccccc3)c(F)c1F)n2C [I123] | 3 | – | – | 105 | 41 | 111
3 | Cc1cc(C(=O)O)c2[nH]c(-c3c(F)c(F)c(-c4cccc(O)c4)c(F)c3F)nc2c1 [I104] | 13.5 | – | – | 104 | – | 110
4 | O=C(O)c1cccc2nc(-c3c(F)c(F)c(-c4cccc(OCc5ccccc5)c4)c(F)c3F)[nH]c12 [I107] | 26 | – | – | 108 | – | 99
5 | Cc1cc(C(=O)O)c2nc(-c3c(F)c(F)c(-c4ccc(OCc5ccccc5)cc4)c(F)c3F)[nH]c2c1 [I127] | 48 | – | – | 101 | – | 96
6 | O=C(O)c1cccc2[nH]c(-c3c(F)c(F)c(-c4ccc(OCc5ccccc5)cc4)c(F)c3F)nc12 [I132] | 378 | – | – | 91.5 | – | 67.8
7 | Cc1ccc(C)n1-c1c(F)c(F)c(-c2nc3cccc(C(=O)O)c3[nH]2)c(F)c1F [I110] | 110 | – | – | 106 | – | 97
8 | O=C(O)c1cccc2[nH]c(-c3c(F)c(F)c(Oc4ccccc4)c(F)c3F)nc12 [I188] | – | – | – | 41.5 | – | 17
9 | O=C(O)c1cccc2nc(-c3ccc(-c4ccc(F)cc4F)cc3F)[nH]c12 [I30] | – | – | – | 68.1 | – | 31.5
10 | Cc1cc(C(=O)O)c2[nH]c(-c3c(F)c(F)c(-c4cccc(F)c4)c(F)c3F)nc2c1 [I126] | 8.86 | – | – | 97 | – | 94
11 | O=C(O)c1cccc2nc(-c3c(F)c(F)c(-c4cccs4)c(F)c3F)[nH]c12 [I124] | 500 | – | – | 104 | – | 80.1
12 | Cc1cc(C(=O)O)c2[nH]c(-c3c(F)c(F)c(-c4cccc(OCc5ccccc5)c4)c(F)c3F)nc2c1 [I105] | 13.6 | – | – | 95.8 | – | 91.9
13 | O=C(O)c1cccc2[nH]c(-c3c(F)c(F)c(-c4ccsc4)c(F)c3F)nc12 [I144] | 441 | – | – | 89.8 | – | 68.2
14 | Cc1cc(C(=O)O)c2nc(-c3ccc(Oc4c(F)c(F)c(F)c(F)c4F)cc3)[nH]c2c1 [I72, 6-Methyl-2-(4-pentafluorophenyloxy-phenyl)-1H-benzoimidazole-4-carboxylic acid] | – | – | – | 38 | – | 9
15 | O=C(O)c1cccc2nc(-c3ccc(-c4c(F)cccc4F)cc3)[nH]c12 [I65] | 1840 | – | – | 82 | – | 43
16 | N#Cc1ccc(Oc2ccc(-c3ccc(-c4nc5c(C(=O)O)cccc5[nH]4)cc3)cc2)cc1 [I179] | – | – | – | 45.8 | – | 10.1
17 | O=C(O)c1cccc2[nH]c(-c3c(F)c(F)c(-c4cccc(OC(F)(F)F)c4)c(F)c3F)nc12 [I148] | 218 | – | – | 103 | – | 88.6
18 | O=C(O)c1cccc2nc(-c3c(F)c(F)c(-c4cccc(F)c4)c(F)c3F)[nH]c12 [I125] | 28.2 | – | – | 97 | – | 92
19 | Cc1cc(C(=O)OCCO)c2[nH]c(-c3c(F)c(F)c(-c4ccccc4)c(F)c3F)nc2c1 [I156] | – | – | – | 69.1 | – | 31.4
20 | O=C(O)c1cccc2[nH]c(-c3ccc(-c4cccs4)cc3)nc12 [I192] | – | – | – | 74.7 | – | 26.1
21 | O=C(O)c1cccc2[nH]c(-c3ccc(Nc4ccccc4)cc3)nc12 [I55] | 27100 | – | – | 33.2 | – | 6.8

Further lines, with some results ahead:

Row | IC50 (DHODH) [nM] | inh @ 10 uM hDHODH (%) (DHODH; compound at 10 uM) | EC50 (Jurkat cells; 72 hrs) [nM] | inhibition at 10 µM (DHODH; compound at 10 uM) [%] | EC50 (Jurkat cells; Homo sapiens, Jurkat, 72 h) [nM] | SMILES | inhibition at 1 µM (Jurkat cells; Homo sapiens, Jurkat) [%]
22 | – | – | – | 48.5 | – | Cc1cc(C(=O)O)c2[nH]c(-c3ccc(-c4cccc(OC5CCNCC5)c4)cc3)nc2c1 [I155] | 14.2
23 | 1420 | – | – | 91.3 | – | Cc1cc(C(=O)O)c2[nH]c(-c3ccc(-c4ccc(F)cc4F)cc3)nc2c1 [I33] | 50.5
24 | 659 | – | – | 97.3 | – | O=C(O)c1cc(Cl)cc2[nH]c(-c3ccc(-c4ccccc4)cc3F)nc12 [I44] | 64.9
25 | 1050 | – | – | 84.7 | – | Cc1cc(C(=O)O)c2nc(-c3ccc(-c4ccc(Oc5ccccc5C=O)cc4)cc3)[nH]c2c1 [I142] | 54.5
26 | 6010 | – | – | 58.7 | – | Cc1cc(C(=O)O)c2[nH]c(-c3ccc(-c4ccc(OCCC5CCNCC5)cc4)cc3)nc2c1 [I95] | 14.3
27 | – | – | – | 53.4 | – | Cc1cc(C(=O)O)c2[nH]c(-c3ccc(-c4cccc(OCCC5CCNCC5)c4)cc3)nc2c1 [I153] | 15.1
28 | 3410 | – | – | 74.2 | – | Cc1cc(C(=O)O)c2[nH]c(-c3ccc(Oc4ccccc4)cc3)nc2c1 [I67] | 29.3
29 | – | – | – | 64.7 | – | O=C(O)c1cccc2[nH]c(-c3ccc(-c4ccccc4)nc3)nc12 [I50] | 21
30 | 155 | – | – | 91 | – | Cc1cc(C(=O)O)c2nc(-c3ccc(-c4cnn(Cc5ccccc5)c4)cc3)[nH]c2c1 [I111] | 62
31 | 344 | – | – | 100 | – | Cc1cc(C(=O)O)c2[nH]c(-c3ccc(-c4c(F)cccc4F)cc3)nc2c1 [I76, 2-(2′,6′-Difluoro-biphenyl-4-yl)-6-methyl-3H-benzoimidazole-4-carboxylic acid] | 83.5
32 | – | – | – | 30.5 | – | Cc1cc(C(=O)O)c2nc(-c3ccc(-c4cccc(NC(=O)C5CCCN5)c4)cc3)[nH]c2c1 (centres unmarked) [I150] | 15.4
33 | – | – | – | 32.1 | – | Cc1cc(C(=O)O)c2[nH]c(-c3ccc(-c4ccccc4)cc3)cc2c1 [I187] | 15.3
34 | 574 | – | – | 96.7 | 388 | O=C(O)c1cc(Br)cc2[nH]c(-c3ccc(-c4ccccc4)cc3)nc12 [I6] | –
35 | – | – | – | 59.3 | – | Cc1cc(C(=O)O)c2nc(-c3ccc(-c4ccc(CN5CCCC5)cc4)cc3)[nH]c2c1 [I164] | 12.1
36 | 755 | – | – | 89.9 | – | Cc1cc(C(=O)O)c2nc(-c3ccc(-c4ccc(OCc5cccnc5)cc4)cc3)[nH]c2c1 [I120] | 66.1
37 | – | – | – | 57.4 | – | Cc1cc(C(=O)O)c2[nH]c(-c3ccc(-c4ccc(CNC(C)C)cc4)cc3)nc2c1 [I160] | 19.6
38 | 3030 | – | – | 80.1 | – | O=C(O)c1cccc2nc(-c3ccc(-c4ccccc4)cc3)oc12 [I19] | 34.3
39 | 177 | – | – | 100 | 393 | Cc1cc(C(=O)O)c2nc(-c3c(F)cc(-c4ccccc4)cc3F)[nH]c2c1 [I48] | 88.1
40 | – | – | – | 58 | – | O=C(O)c1cccc2[nH]c(-c3ccc(-c4ccncc4)cc3)nc12 [I57] | 12.6
41 | – | – | – | 53.3 | – | Cc1cc(C(=O)O)c2nc(-c3ccc(-c4ccc(Oc5ccc(C#N)cc5)cc4)cc3)[nH]c2c1 [I178] | 37.6
42 | 595 | – | – | 94.8 | 202 | O=C(O)c1cccc2cc(-c3ccc(-c4ccccc4)cc3)[nH]c12 [I61] | 67.2
43 | – | – | – | 43.3 | – | Cc1cc(C(=O)O)c2[nH]c(-c3ccc(-c4ccc(CN(C)C)cc4)cc3)nc2c1 [I161] | 9.7
44 | 490 | – | – | 96.4 | – | O=C(O)c1cccc2[nH]c(-c3ccc(-c4ccccc4F)cc3)nc12 [I15] | 64.4

Reference: patent publication US9006454B2, “Dihydroorotate dehydrogenase inhibitors” (Merck Serono S.A., priority 2009, dated 2015)
